# Measured values taken from patent publication US20040002457A1, “Inhibition of virus anchorage by RGG domain of a cell surface-expressed protein, polynucleotide coding for said RGG domain, therapeutic uses thereof by inhibition of microorganism or protein ligand binding to the cell-surface-expressed protein” (priority 2002, published 2004).
# Like-named read-outs stand apart in the source and are kept apart here. No end group written: not given here.
# Experiments:
# HIV-1 LAI [1] = details: cited from earlier work
# HIV particles = details: CD4+ target cells (refs 1, 4, 13, 26); cited from earlier work
# HeLa P4 cells = test: HB-19A binding to HeLa P4 cells (125I-labeled HB-19A); design: species or system human; details: HeLa P4 cells washed at 300 mM NaCl (FIG. 3A)
# Procedure: (§1) Assay of HB-19A binding to cells. Cells were plated at 10^4 cells/well in 96-well-plates for the ^1251-labeled HB-19A binding or at 10^5 cells/well, in 24-well-plates for the biotinylated HB-19A binding. Twenty four hours later, binding experiments were performed after incubation of the cell monolayers in fresh culture medium for 1 h at room temperature (about 21° C.) in order to cool cells. It should be noted that intracellular entry of HB-19A is inhibited more than 90% at room temperature. Cells were incubated (30 min at room temperature) with different concentrations of the ^125I-labeled HB-19A or the biotinylated HB-19A before washing cells in culture medium containing 10% FCS. For total amount of binding (specific and non-specific), cells were washed 7 times with culture medium. For specific binding measurements, cells were first washed 3 times in culture medium supplemented with 150 mM NaCl thus bringing the final concentration of NaCl to 300 mM followed by 4 washings in culture medium. Washed cells were processed to reveal either the ^125I-labeled HB-19A or the biotinylated HB-19A. For the ^1251-labeled HB-19A binding, cell monolayers were extracted in 1% SDS and the radioactivity was measured in an automatic gamma counter (LKB Wallac Clini Gamma 1272). […] Finally, ortho-phenylenediamine solution was added in the dark and the absorbance was measured at 405 nm.
# HIV-1 LAI [2] = test: HIV-1 LAI infection in HeLa P4 cells (LTR-lacZ, β-galactosidase); assay type: cell-based; details: HB-19A 1 μM (FIG. 9)
# Procedure: Assay of HIV infection in HeLa CD4+cells. HIV-1 LAI infection was monitored indirectly in HeLa-CD4-LTR-/ac Z cells (HeLa P4 cells) containing the bacterial lac Z gene under the control of HIV-1 LTR. HIV-1 entry and replication result in the activation of the HIV-1 LTR leading to the expression of p-galactosidase. At 48 h post-infection, cells were lysed and assayed for β-galactosidase activity using the chlorophenol-red-β-D-galactopyranoside as a substrate. The optical density was measured at 570 nm (1). The HIV-1 Ba-L infection was monitored in HeLa-CD4-LTR-/ac Z cells but expressing also CCR5 (HeLa F4-C5 cells) as above (1).
# Assay of peptides for their activity. Each peptide is tested at different concentrations to investigate their capacity to inhibit HIV infection. Each peptide is investigated for its binding capacity to the HB-19, using biotin-coupled HB-19.
# CHO K1 cells = test: Biotinylated HB-19A binding to wild type CHO K1 cells; design: species or system Chinese hamster; details: wild type CHO K1 cells (FIG. 3B)
# Procedure: as §1
# RGG domain of nucleolin = test: Biotinylated HB-19A binding to GST constructs of nucleolin containing the RGG domain; design: species or system human; details: constructs containing the RGG domain (FIG. 8, lanes 1234G, R234G, G)
# Procedure: Expression and purification of recombinant nucleolin constructs. Escherichia coli (E. coli) BL21 (DE3) cells were transformed with each pGEX-N3 plasmid coding for truncated derivatives of the C-terminal part of human nucleolin. Cells were grown overnight at 37° C. in 100 ml of Terrific Broth containing 100 μg of ampicillin per ml. After 1:50 dilution in 100 ml of fresh medium, cells were grown at 30° C. to a 600 nm optical density of approximately 0.5 (6 h) and induced with 0.5 mM isopropyl-1-thio-D-galactopyranoside (IPTG) for an additional 2 h. Bacteria were pelleted at 4,000 g for 10 min at 4° C., resuspended in 5 ml of PBS containing 0.2 mM phenylmethylsulphonyl flouride (PMSF) and 1 mM DTT, and frozen at −20° C. overnight. […] The presence of proteins in cell extracts was monitored by SDS-Page with Coomassie blue staining, and their respective concentration estimated and adjusted.
# To assay HB-19A binding capacity, bacterial extracts were first diluted 5-fold in PBS-EDTA before centrifugation at 12,000 g for 10 min at 4° C. […] The purified proteins were eluted by heating in the electrophoresis sample buffer containing SDS and analyzed by immunoblotting using anti-GST monoclonal antibody B-14 (Santa Cruz Biotechnology, Inc.).
# full-length nucleolin = molecular target: T1, full-length nucleolin (Homo sapiens, UniProt P19338); test: Biotinylated HB-19A binding to in vitro translated full-length nucleolin (avidin-agarose); details: amino acids 1 to 707, 0.5 or 1 μM biotinylated HB-19A (FIG. 6)
# T1 construct: labeled full length nucleolin, N-terminal and the C-terminal parts containing amino acids 1 to 707; vector-encoded His leader of pcDNA4His/Max C (only the vector name is printed); made in house; host or cells: cell-free: TNT coupled rabbit reticulocyte lysate (Promega), 35S-Met/Cys labelled, used crude
# Procedure: (§2) In vitro transcription and translation of human nucleolin. The TNT coupled reticulocyte lysate system (Promega) was used to produce the wild-type nucleolin (pcDNA4 Nuc) and the N- and C-terminal parts of nucleolin (pcDNA4 NucN and pcDNA4 NucC containing amino acids 1-308 and 309-707) by in vitro transcription/translation. Reactions were performed by using 2 μg of each plasmid and 20 μCi of […].
# (§3) To assay the HB-19A binding capacity of the generated nucleolin and nucleolin truncated constructs, 25 μl of translation products were diluted in 25 μl of modified BI buffer (20 mM Tris-HCl, pH 7.6,100 mM NaCl, 50 mM KCl, 2 mM EDTA, 2% Triton X-100,1000 U/ml aprotinin), centrifuged at 12,000 g for 10 min at 4° C. and diluted in 150 μl of PBS. Binding reactions were performed by incubating 200 μl of each diluted lysates with the biotinylated HB-19A for 1 h at 4° C. Complexes formed between nucleolin deletion constructs and biotinylated HB-19A were isolated by purification of the extracts using avidin-agarose (100 μl) in PBS-EDTA (12). After 2 h of incubation at 4° C., the samples were washed extensively with PBS-EDTA. The purified proteins were eluted by heating in the electrophoresis sample buffer containing SDS and analyzed by SDS-PAGE.
# HIV = details: 1 μM HB-19A, different types of cells (refs 1, 10); cited from earlier work
# CHO 618 cells = test: Biotinylated HB-19A binding to mutant CHO 618 cells; design: species or system Chinese hamster; details: CHO 618 devoid of heparan- and chondroitin-sulfate proteoglycans (FIG. 3B)
# Procedure: as §1
# [3] = molecular target: T2, N-terminal part of nucleolin (Homo sapiens, UniProt P19338); test: Biotinylated HB-19A binding to in vitro translated N-terminal part of nucleolin; details: amino acids 1 to 308, contains the acidic stretches (FIG. 6)
# T2 construct: pcDNA4 NucN and pcDNA4 NucC containing amino acids 1-308 and 309-707; vector-encoded His leader of pcDNA4His/Max C (only the vector name is printed); made in house; host or cells: cell-free: TNT coupled rabbit reticulocyte lysate (Promega), 35S-Met/Cys labelled, used crude
# Procedure: as §2, §3
# [4] = test system: C-terminal part of nucleolin; test: Biotinylated HB-19A binding to in vitro translated C-terminal part of nucleolin; design: species or system human; details: amino acids 309-707 (FIG. 6)
# Procedure: as §2, §3
# RGG domain of nucleolin, sequence (P19338 648-710 limits assumed): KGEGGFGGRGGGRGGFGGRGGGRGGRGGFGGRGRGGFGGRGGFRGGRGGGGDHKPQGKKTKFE
# C-terminal part of nucleolin, sequence (P19338 312-710 limits assumed): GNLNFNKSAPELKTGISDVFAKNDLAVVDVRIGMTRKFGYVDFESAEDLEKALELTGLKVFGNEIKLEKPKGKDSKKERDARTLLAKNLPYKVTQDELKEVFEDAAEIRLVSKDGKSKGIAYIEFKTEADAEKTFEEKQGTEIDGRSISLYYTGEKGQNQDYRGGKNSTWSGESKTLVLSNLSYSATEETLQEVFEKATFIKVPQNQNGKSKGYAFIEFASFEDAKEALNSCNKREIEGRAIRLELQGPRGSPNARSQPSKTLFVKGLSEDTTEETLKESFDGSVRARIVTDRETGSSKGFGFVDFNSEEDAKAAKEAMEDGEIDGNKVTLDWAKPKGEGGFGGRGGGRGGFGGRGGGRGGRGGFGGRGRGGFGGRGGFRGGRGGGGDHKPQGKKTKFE
# T1 sequence (P19338 whole entry, the tested form may be a part): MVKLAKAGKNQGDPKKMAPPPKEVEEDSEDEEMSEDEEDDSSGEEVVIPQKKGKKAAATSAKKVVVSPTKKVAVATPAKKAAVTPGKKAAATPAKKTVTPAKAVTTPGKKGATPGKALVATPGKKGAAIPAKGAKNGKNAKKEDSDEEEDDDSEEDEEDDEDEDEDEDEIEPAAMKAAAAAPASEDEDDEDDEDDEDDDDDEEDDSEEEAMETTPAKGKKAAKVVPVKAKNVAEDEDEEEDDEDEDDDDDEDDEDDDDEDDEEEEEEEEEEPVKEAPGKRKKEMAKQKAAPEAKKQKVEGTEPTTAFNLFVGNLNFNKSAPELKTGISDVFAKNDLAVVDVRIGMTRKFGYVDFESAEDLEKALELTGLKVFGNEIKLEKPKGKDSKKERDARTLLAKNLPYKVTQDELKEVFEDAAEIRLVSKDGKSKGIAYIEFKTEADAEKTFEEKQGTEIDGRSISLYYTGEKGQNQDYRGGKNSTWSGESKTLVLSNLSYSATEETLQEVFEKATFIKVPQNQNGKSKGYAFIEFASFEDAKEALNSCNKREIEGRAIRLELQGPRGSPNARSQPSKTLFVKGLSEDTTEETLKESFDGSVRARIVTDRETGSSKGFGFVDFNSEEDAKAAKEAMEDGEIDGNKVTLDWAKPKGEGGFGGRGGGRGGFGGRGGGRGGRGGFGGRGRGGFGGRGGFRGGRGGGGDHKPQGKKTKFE
# T2 sequence (P19338 1-308): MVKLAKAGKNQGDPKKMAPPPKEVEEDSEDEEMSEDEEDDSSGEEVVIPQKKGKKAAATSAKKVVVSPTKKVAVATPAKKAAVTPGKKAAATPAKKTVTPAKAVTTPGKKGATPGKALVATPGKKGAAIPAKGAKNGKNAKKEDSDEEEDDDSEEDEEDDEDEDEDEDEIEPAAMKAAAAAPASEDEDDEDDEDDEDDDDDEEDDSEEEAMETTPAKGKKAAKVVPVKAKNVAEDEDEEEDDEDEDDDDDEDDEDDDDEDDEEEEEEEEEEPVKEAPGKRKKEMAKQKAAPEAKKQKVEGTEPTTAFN
substance,measurement,setting,value
5[Kψ(CH2N)PR]-TASP [HB-19],"HIV entry at the level of HIV attachment, pretreatment of cells","HIV-1 LAI [1]; HeLa P4 cells (refs 1, 4)",inhibition of HIV entry
same,resistance to HIV of pretreated cells after removal of the medium containing the inhibitor,HIV-1 LAI [1]; several hours after removal (ref 1),remain resistant
same,anchorage of HIV particles,HIV particles,inhibited
"HB-19A: new generation of HB-19 presenting pentavalently the Kψ(CH2N)PR moiety coupled to a modified TASP template (peptide Lys-Pro-Arg; chain KKKKA; also: Kψ(CH2N)P reduced bond, pentavalent on modified TASP template)",concentration at which specific binding reaches saturation,HeLa P4 cells,1 µM
same,"HIV entry at the level of HIV attachment, pretreatment of cells",HIV-1 LAI [2],inhibition of HIV entry
same,concentration at which binding reaches saturation,CHO K1 cells,1 µM
same,HB-19A concentration at which binding reaches maximum value,RGG domain of nucleolin,5 µM
same,anchorage of HIV particles,HIV particles,inhibited
same,binding to full-length nucleolin,full-length nucleolin,bind
same,inhibition of HIV infection,HIV,more than 95%
same,HB-19A binding profile compared with CHO K1,CHO 618 cells,no significant difference
same,binding to N-terminal part of nucleolin,[3],did not bind at all
same,binding to C-terminal part of nucleolin,[4],bound efficiently
"RRWCYRKDKPYRKCR [TW70, anti-HIV cyclic peptide specific for CXCR4, reference compound]",anchorage of HIV particles,HIV particles,inhibited
fibroblast growth factor 2: growth factor which binds heparan sulfate proteoglycans,anchorage of HIV particles,HIV particles,inhibited
